Source: patent US6893830B1, “Method of screening oxysterol activation of LXRα” (The Board of Regents of the University of Texas System, priority 1996, dated 2005)
pEC50: −log10 of the molar value. Read-outs that look alike come from different tables or passages of the source.

Legend:
LXRα = molecular target: T1, LXRα (Homo sapiens, UniProt Q13133); assay: LXRα cotransfection assay with TK-LXREx3-LUC reporter in CV-1 cells; format: cell-based; parameters: expressed in transfected cells; host or cells: CV-1 monkey kidney cells; settings: for LXRα activity: 10 μM, CV-1 cotransfection assay
T1 sequence (Q13133 1-447): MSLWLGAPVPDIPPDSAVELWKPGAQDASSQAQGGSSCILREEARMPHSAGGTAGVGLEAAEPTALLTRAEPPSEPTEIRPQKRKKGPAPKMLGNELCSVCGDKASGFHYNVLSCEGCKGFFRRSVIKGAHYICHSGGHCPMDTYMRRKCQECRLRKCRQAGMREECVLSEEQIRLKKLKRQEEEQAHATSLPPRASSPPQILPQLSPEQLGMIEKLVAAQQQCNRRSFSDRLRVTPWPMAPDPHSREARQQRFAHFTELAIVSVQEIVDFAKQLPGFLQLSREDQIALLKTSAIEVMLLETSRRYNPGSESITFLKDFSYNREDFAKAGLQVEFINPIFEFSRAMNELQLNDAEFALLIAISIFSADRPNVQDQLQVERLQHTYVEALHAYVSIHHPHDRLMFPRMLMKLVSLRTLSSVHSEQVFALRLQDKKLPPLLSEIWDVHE
T1 sequence (P19793 1-462 partner): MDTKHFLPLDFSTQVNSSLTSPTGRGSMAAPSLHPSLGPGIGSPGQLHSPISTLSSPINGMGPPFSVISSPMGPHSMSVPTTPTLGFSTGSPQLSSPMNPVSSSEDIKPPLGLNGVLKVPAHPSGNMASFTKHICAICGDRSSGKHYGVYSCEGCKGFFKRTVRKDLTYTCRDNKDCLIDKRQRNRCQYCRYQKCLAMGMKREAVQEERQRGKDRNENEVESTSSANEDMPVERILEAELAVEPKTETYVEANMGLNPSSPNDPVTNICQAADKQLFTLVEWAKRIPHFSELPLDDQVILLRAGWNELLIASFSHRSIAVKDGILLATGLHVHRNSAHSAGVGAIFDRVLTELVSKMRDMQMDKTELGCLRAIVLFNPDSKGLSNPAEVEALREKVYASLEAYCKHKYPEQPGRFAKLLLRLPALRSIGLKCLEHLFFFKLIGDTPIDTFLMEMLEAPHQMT
Description: FIG. 1 Human LXRα is activated by gonad sterols. (A) Transactivation of LXRα ligand binding domain (LBD) with testis extract. CV-1 cells were cotransfected with a GAL4 responsive luciferase reporter plasmid and an expression plasmid encoding no receptor or a chimeric receptor composed of the GAL4 DNA binding domain fused to the LXRα ligand binding domain (LBD) (GAL4-LXRα)^3. After transfection, cells were treated with ethanol (ETOH) or 1% of the concentrated testis extract. (B) Transactivation of LXRα with follicular fluid meiosis activating substance (FF-MAS). CV-1 cells were cotransfected with an LXRα responsive reporter plasmid and the receptor expression plasmids for LXRα alone or with RXRα. After transfection, cells were treated with ETOH or […] FF-MAS.
FIG. 2 LXRα is activated by a specific subset of oxysterols. (A) Specificity of LXRα activators. Shown is a representative group from 70 compounds evaluated for LXRα activity (10 μM) in cotransfection assays as described in FIG. 1B. […] (B) The the structure-activity relationship of LXRα activators. Data compiled from FIG. 2A and other experiments (not shown) reveal that the position of the hydroxyl on the cholesterol backbone is a determinant of LXRα activity. […] Dose response curves for LXRα activators were generated in CV-1 cell cotransfection assays as described in FIG. 1B.
Organic extraction of breeding bull testis was performed as described^6. Briefly, 12 grams of lyophilized testis was extracted with N-heptane and lipids were concentrated by roto-evaporation. Aliquots representing 1% of this material were assayed. FF-MAS was synthesized as described^18. Transient transfections in CV-1 monkey kidney cells were performed in triplicate in 48-well plates as described^3 with media containing 5% cabosil-treated calf bovine serum.
Transfections were performed in FIG. 1A using 80 ng of TK-MH100x4-LUC reporter and 30 ng of CMX-GAL4-hLXRα expression plasmids per well; and in FIG. 1B using 50 ng of TK-LXREx3-LUC reporter and 25 ng of CMX-hLXRa alone or with 25 ng CMX-hRXRa expression plasmids per well. Candidate ligands were dissolved in ethanol and added 8 hours post-transfection. As an internal standard, 50 ng of CMX-β gal was included in all transfections. All plasmid constructs and determinations of luciferase and β-galactosidase activities have been described^3. To construct CMX-LXRα, the hLXRα cDNA insert was excised from the plasmid pXR2DRV (Willy, et al., 1995, Genes Dev. 9: 1033-1045) with Kpnl and BamHI and was ligated into the expression vector CMX. CMX-βgal was constructed by ligating the β-galactosidase gene into the expression vector CMX. Chimeric Gal4-receptor expression plasmid (CMX-GAL4-LXRα) was constructed by first ligating the GAL4 portion of pSC424 (Sadowski, I. and M. Ptashne, 1989, Nucleic Acids Res. 19: 7539-7530) into the HindIII/SacI sites of pCMX (Umesono, et al., 1991, Cell 65: 1255-1266) to create pCMX-GAL4. This vector contains the CMV promoter fused to the coding sequence for GAL4 (1-147), followed by inframe polylinker cloning sites and translational stop codons. The cDNAs encoding the ligand-binding domain (LBD) of hLXRα (amino acids 166-447) was then ligated into the polylinker to create CMX-GAL4-LXRα.
Reporter plasmids for these studies were constructed by ligating the appropriate oligonucleotides into the HindIII site of the TK-LUC vector to create TK-LXREx3-LUC, TK-MH100x4-LUC (Kang, T., et al., 1993, J. Biol Chem. 268: 9629-9635). The sense strand of the LXRE oligonucleotide used to construct the reporter plasmid TK-LXREx3-LUC was 5′agctt[…]3′ (SEQ. ID. NO. 1). All constructs were verified by sequencing. Data are presented as relative light units (RLUs) and represent the mean of triplicate assays±standard error. […]

RXR/LXR heterodimer = RXR/LXR heterodimer activation, dose response in CV-1 cells with TK-LXREx3-LUC; format: cell-based, human; settings: LXRα expression plasmid, dose-dependent
Description: TK-DR-4-LUC; human vitamin D receptor (VDR)^24, TK-DR^3-LUC; human peroxisome proliferator-activated receptor-α (PPARα)^25, TK-PPREx3-LUC; human farnesol activated receptor (FXR)^11, ΔMTV-EcREx5-LUC; human estrogen receptor (ER)^26, ΔMTV-ERE-LUC; human glucocorticoid receptor (GR)^27, MTV-LUC; Drosophila ecdysone receptor (usp/EcR)^15, ΔMTV-EcREx5-LUC. Cells were treated with ETOH or 6 μM 22(R)-hydroxycholesterol. […] FIG. 3(A)-3(D) Activation of LXRα by 22(R)-hydroxycholesterol in Drosophila (SL-2) cells. […] CV-1 cells were cotransfected with TK-LXREx3-LUC reporter plasmid and expression plasmids containing the indicated receptor combinations, and then treated with the indicated ligands. […] CV-1 cells cotransfected with the LXRα expression plasmid and TK-LXREx3-LUC reporter were treated with 9-cis RA, 22(R)-hydroxycholesterol, or both, at the indicated concentrations.
In FIG. 3B. Drosophila SL-2 cells were transfected and assayed as previously described^5 in 6-well plates with […] A5C-hLXRα or A5C-hLXRα, 0.5 mg ADH-LXREx2-LUC, 0.2 mg A5C-βGAL and […] PGEM4 carrier DNA per well.
A subset of receptors that function as RXR heterodimers have the unique ability to be activated by their own ligand, the RXR ligand (i.e., 9-cis retinoic acid), or both ligands together^11,17. […]

LXRα protein = molecular target: T2, LXRα protein (Homo sapiens, UniProt Q13133); assay: Limited protease protection assay (chymotrypsin) of [35S]-labelled Flag-LXRα; format: binding; settings: increasing concentrations of chymotrypsin, SDS-PAGE and autoradiography
T2 construct: made in house; host or cells: in vitro synthesis (cell-free translation)
T2 sequence (Q13133 1-447): T1 sequence (Q13133 1-447)
Description: FIG. 4, Protease protection of LXRα with 22(R)-hydroxycholesterol. [^35S]-labelled LXRα protein was incubated with (A) ethanol (ETOH) control or (B) 22(R)-hydroxycholesterol, subjected to protease digestion with increasing amounts of chymotrypsin, and analyzed by SDS-PAGE and autoradiography.
In vitro synthesized [^35S]-labelled Flag-LXRα protein was subjected to protease digestion with α-chymotrysin. For these studies, LXRα with a Flag epitope fused to the amino terminus was used.
The unavailability of radiolabelled LXRα activators prevents direct ligand binding analysis. To address the possibility that 22(R)-hydroxycholesterol interacts with LXRα, a limited protease protection assay was performed (FIG. 4). In this experiment, several proteolytic fragments were generated when LXRα protein was incubated with increasing concentrations of the protease, chymotrypsin. […] The presence of a specific ligand-protected ˜30 kDa fragment has also been observed during similar analyses with other nuclear receptors. Thus, these protease protection studies support the finding that 22(R)-hydroxycholesterol interacts with LXRα.

[1] = CV-1 cell cotransfection, dose response curves, read-out: EC50 for LXRα activators

For `CC(C)CCC[C@@H](C)[C@H]1CC[C@H]2[C@@H]3[C@@H](O)C=C4C[C@@H](O)CC[C@]4(C)[C@H]3CC[C@]12C` [7β-hydroxycholesterol], the pEC50 (LXRα; [1]) was 5.46.

`CC1=C(/C=C/C(C)=C\C=C\C(C)=C\C(=O)O)C(C)(C)CCC1` [9-cis retinoic acid, reference compound] was tested, and the maximal induction (RXR/LXR heterodimer) was 7 fold and the “ligand-protected 30 kDa chymotrypsin fragment of LXRα” value (LXRα protein) was “not”.

With `CC(C)CCC[C@](C)(O)[C@H]1CC[C@H]2[C@@H]3CC=C4C[C@@H](O)CC[C@]4(C)[C@H]3CC[C@@]21C` [20(S)-hydroxycholesterol] the pEC50 (LXRα; [1]) was 5.80.

With `CC(C)CC[C@H](O)[C@@H](C)[C@H]1CC[C@H]2[C@@H]3CC=C4C[C@@H](O)CC[C@]4(C)[C@H]3CC[C@]12C` [22(S)-hydroxycholesterol] the LXRα activity (LXRα) was “completely inactive”.

Work on `CC(C)C(O)CC[C@@H](C)[C@H]1CC[C@H]2[C@@H]3CC=C4C[C@@H](O)CC[C@]4(C)[C@H]3CC[C@]12C` (some centres unmarked) [24-hydroxycholesterol] yielded a pEC50 (LXRα) of 5.80.

`C[C@H](CCCC(C)(C)O)[C@H]1CC[C@H]2[C@@H]3CC=C4C[C@@H](O)CC[C@]4(C)[C@H]3CC[C@]12C` [25-hydroxycholesterol] was tested, and the pEC50 (LXRα; [1]) was 5.46.

In the case of `CC(C)=CCC[C@@H](C)[C@H]1CC=C2C3=C(CC[C@@]21C)[C@@]1(C)CC[C@H](O)C(C)(C)[C@@H]1CC3` [FF-MAS], the pEC50 (LXRα; [1]) was 5.46 and the “induction of transcription by LXRα” value (LXRα; CV-1 cells, wild-type LXRα, TK-LXREx3-LUC, 50 mM FF-MAS vs ETOH) was 5-6 fold.

`CC(C)CCC[C@@H](C)[C@H]1CC[C@H]2[C@@H]3CC=C4C[C@@H](O)CC[C@]4(C)[C@H]3CC[C@]12C` [cholesterol] was tested, and the “ligand-protected 30 kDa chymotrypsin fragment of LXRα” value (LXRα protein) was “not”.

In the case of `CC(C)=CCCC(C)=CCCC(C)=CCO` [farnesol, reference compound], the LXRα activity (LXRα) was “no LXRα activity”.
